In patent US20240246954A1, “COMPOSITIONS AND METHODS FOR INHIBITING KRAS” (TheRas, Inc., priority 2021, published 2024):

Key:
[1] = tested on: pERK in GP2d cells (KRAS G12D); experiment: Cell-based pERK HTRF assay; settings: GP2d, 1 h, 60 min incubation
Experimental: Biological Example 3. Cell-Based pERK HTRF Assay
pERK assay (Perkin Elmer) was used to determine the effectiveness of compounds in disrupting KRAS G12D protein/effector signaling in cells.
On Day 1, cells (GP2d) were seeded into 96-well plates at 3×10^4 cells/well in 80 μl complete growth media (DMEM, 10% FBS).
On Day 2, cells were treated with compounds at 0.25% DMSO. The source plate was created with compounds diluted in media at 5-fold the final assay concentration. The compounds were run in a 9-point concentration curve starting at 1 μM, with a half-log dilution between concentrations. 20 μL was transferred onto the cell plates (final volume in wells was 100 μL). Plates were harvested after 60 min incubation by aspirating media and adding kit-supplied 1× supplemented lysis buffer to all wells (50 μl per well). Plates were then placed on a plate shaker and incubated at 850 rpm for an additional 30 min.
Antibody mixture solution is prepared by diluting aliquoted d2 and Eu Cryptate antibodies 1:20 in kit supplied detection buffer, mix the diluted antibodies solutions (1:1 v:v). Four μL of this solution is then added to a 384-well detection plate (Perkin Elmer; 6008230).
Samples were homogenized by pipetting up and down and then transferred (16 μL of cell lysates) from the 96-well cell culture plate to two wells of the HTRF 384-well detection plate containing the antibody solution. Plates were centrifuged (524 g for 1 min) and allowed to incubate between 4 and 24 h at room temperature. Maximum signal is reached after 4 h incubation time and remains stable over a period of 24 hours. Therefore, readings can be made between 4 and 24 h of incubation. Plates were centrifuged again (524 g for 1 min), then analyzed on the EnVision plate reader using the following settings: Excitation 320 nm, Bandwidth 75 nm; Emission 615 nm, Bandwidth 85 nm; Gain 100%; Flashes 100; Lag 60 μs.

[2] = biological target: T1, Avi-KRAS G12D (1-169) GppNHp/RAF1 RBD-3×FLAG (52-151) (Homo sapiens, UniProt P01116, G12D); experiment: HTRF Raf1-KRAS G12D-GppNHp disruption assay; type: biochemical; settings: 1 h incubation
T1 construct: Avi-KRAS G12D (1-169) GppNHp
T1 sequence (P01116 1-169 isoform P01116-2 G12D limits assumed): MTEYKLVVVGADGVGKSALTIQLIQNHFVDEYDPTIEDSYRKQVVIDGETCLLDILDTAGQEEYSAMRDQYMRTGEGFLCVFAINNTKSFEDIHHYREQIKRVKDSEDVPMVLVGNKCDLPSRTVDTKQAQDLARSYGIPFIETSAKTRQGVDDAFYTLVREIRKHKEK
Procedure, shortened: (§1)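 Compounds titrated from 100 μM in a 10-point series, incubated with protein mix 1 h at room temperature, then HTRF reagents a further 1 h. Time-resolved fluorescence read (excitation 320 nm, emission 615 nm); activity expressed as percentage of DMSO control.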

[3] = biological target: T2, Avi-KRAS G12D/Q25A (1-169) GppNHp/3×FLAG-PI3KCA (157-299) (Homo sapiens, UniProt P01116, G12D/Q25A); experiment: HTRF PI3KCA-KRAS G12D/Q25A-GppNHp disruption assay; type: biochemical; settings: 1 h incubation
T2 construct: Avi-KRAS G12D/Q25A (1-169) GppNHp
T2 sequence (P01116 1-169 isoform P01116-2 G12D/Q25A limits assumed): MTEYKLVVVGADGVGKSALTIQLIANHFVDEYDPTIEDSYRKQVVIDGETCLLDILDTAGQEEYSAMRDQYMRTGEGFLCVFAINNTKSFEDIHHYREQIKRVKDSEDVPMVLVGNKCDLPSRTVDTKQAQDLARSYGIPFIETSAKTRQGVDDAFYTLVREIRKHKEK
Procedure, shortened: as §1

Row | IC50 [1] [µM] | IC50 [2] [µM] | IC50 [3] [µM] | SMILES
1 | > 1 | 0.1 to 1 | 0.1 to 1 | Nc1nc2c(-c3c(C(F)(F)F)cc4c(N[C@H]5CCC6(CNC6)C5)nc(OCC56CCCN5CCC6)nc4c3F)ccc(F)c2s1 [Compound 335]
2 | 0.1 to 1 | 0.1 to 1 | 1 to 10 | C[C@@H]1C[C@@H](N(C)c2nc(OC[C@@]34CCCN3C[C@H](F)C4)nc3cc(-c4ccc(F)c5sc(N)nc45)c(C(F)(F)F)cc23)CN1 [Compound 336]
3 | 0.1 to 1 | 0.1 to 1 | 0.1 to 1 | CN(c1nc(OC[C@@]23CCCN2C[C@H](F)C3)nc2c(F)c(-c3ccc(F)c4sc(N)c(C#N)c34)ccc12)[C@@H]1CCNC1 [Compound 344]
4 | 0.1 to 1 | 0.1 to 1 | 0.1 to 1 | CN(c1nc(OC[C@@]23CCCN2C[C@H](F)C3)nc2c(F)c(-c3ccc(F)c4sc(N)c(C#N)c34)c(C#N)cc12)[C@@H]1CCNC1 [Compound 345, 7-(2-amino-3-cyano-7-fluorobenzo[b]thiophen-4-yl)-8-fluoro-2-(((2R,7aS)-2-fluorotetrahydro-1H-pyrrolizin-7a(5H)-yl)methoxy)-4-(methyl((R)-pyrrolidin-3-yl)amino)quinazoline-6-carbonitrile]
5 | ≤ 0.1 | 0.1 to 1 | 0.1 to 1 | CN(c1nc(OC[C@@]23CCCN2C[C@H](F)C3)nc2cc(-c3ccc(F)c4sc(N)c(C#N)c34)c(C(F)(F)F)cc12)[C@H]1CNC[C@H]1F [Compound 347]
6 | > 1 | 1 to 10 | 1 to 10 | Nc1nc2c(-c3c(C(F)(F)F)cc4c(N5CC[C@H]6CCNC[C@H]65)nc(OCC56CCCN5CCC6)nc4c3F)ccc(F)c2s1 [Compound 348]
7 | > 1 | 1 to 10 | 1 to 10 | Nc1nc2c(-c3c(C(F)(F)F)cc4c(N5CC[C@@H]6CCNC[C@@H]65)nc(OCC56CCCN5CCC6)nc4c3F)ccc(F)c2s1 [Compound 349]
8 | 0.1 to 1 | 0.1 to 1 | 0.1 to 1 | Nc1nc2c(-c3c(C(F)(F)F)cc4c(N5CC[C@@H]6CNC[C@@H]65)nc(OC[C@@]56CCCN5C[C@H](F)C6)nc4c3F)ccc(F)c2s1 [Compound 351]
9 | 0.1 to 1 | 1 to 10 | 1 to 10 | Nc1nc2c(-c3c(C(F)(F)F)cc4c(N5CC[C@H]6CNC[C@H]65)nc(OC[C@@]56CCCN5C[C@H](F)C6)nc4c3F)ccc(F)c2s1 [Compound 352]
10 | ≤ 0.1 | 0.1 to 1 | 0.1 to 1 | CN(c1nc(OC[C@@]23CCCN2C[C@H](F)C3)nc2c(F)c(-c3ccc(F)c4sc(N)c(C#N)c34)c(C(F)(F)F)cc12)[C@H]1CNC[C@H]1F [Compound 353]
11 | 0.1 to 1 | 0.1 to 1 | 0.1 to 1 | CN(c1nc(OC[C@@]23CCCN2C[C@H](F)C3)nc2cc(-c3ccc(F)c4sc(N)nc34)c(C(F)(F)F)cc12)[C@H]1CNC[C@H]1F [Compound 354]
12 | ≤ 0.1 | 0.1 to 1 | 1 to 10 | CN(c1nc(OC[C@@]23CCCN2C[C@H](F)C3)nc2c(F)c(-c3ccc(F)c4sc(N)c(C#N)c34)c(C(F)(F)F)cc12)[C@H]1CNC[C@@H]1F [Compound 355]
13 | 0.1 to 1 | 1 to 10 | 1 to 10 | CN(c1nc(OC[C@@]23CCCN2C[C@H](F)C3)nc2cc(-c3ccc(F)c4sc(N)c(C#N)c34)c(C(F)(F)F)cc12)[C@H]1CNC[C@@H]1F [Compound 356]
14 | 0.1 to 1 | 1 to 10 | 1 to 10 | C[C@@H]1C[C@@H](N(C)c2nc(OC[C@@]34CCCN3C[C@H](F)C4)nc3c(F)c(-c4ccc(F)c5sc(N)c(C#N)c45)ccc23)CN1 [Compound 357]
15 | ≤ 0.1 | ≤ 0.1 | 0.1 to 1 | CN(c1nc(OC[C@@]23CCCN2C[C@H](F)C3)nc2c(F)c(-c3ccc(F)c4sc(N)c(C#N)c34)c(C(F)(F)F)cc12)[C@]1(C)CCNC1 [Compound 360]
16 | 0.1 to 1 | 0.1 to 1 | 0.1 to 1 | CN(c1nc(OC[C@@]23CCCN2C[C@H](F)C3)nc2c(F)c(-c3ccc(F)c4sc(N)c(C#N)c34)c(F)cc12)[C@H]1CCNC1 [Compound 361, 2-amino-4-(6,8-difluoro-2-(((2R,7aS)-2-fluorotetrahydro-1H-pyrrolizin-7a(5H)-yl)methoxy)-4-(methyl((S)-pyrrolidin-3-yl)amino)quinazolin-7-yl)-7-fluorobenzo[b]thiophene-3-carbonitrile]
17 | ≤ 0.1 | ≤ 0.1 | 0.1 to 1 | CN(c1nc(OC[C@@]23CCCN2C[C@H](F)C3)nc2c(F)c(-c3ccc(F)c4sc(N)c(C#N)c34)c(C(F)(F)F)cc12)[C@@H]1CCN[C@@H]1CF [Compound 364]
18 | 0.1 to 1 | 0.1 to 1 | 0.1 to 1 | CN(c1nc(N2CC(N3CC4(CC4)C3)C2)nc2c(F)c(-c3ccc(F)c4sc(N)c(C#N)c34)c(C(F)(F)F)cc12)[C@@H]1CCNC1 [Compound 365]

Row | SMILES | IC50 [1] [µM] | IC50 [2] [µM] | IC50 [3] [µM]
19 | N#Cc1c(N)sc2c(F)ccc(-c3c(C(F)(F)F)cc4c(N5CC6CCC(C5)N6)nc(OCC5(CN6CCOCC6)CC5)nc4c3F)c12 [Compound 337] | ≤ 0.1 | ≤ 0.1 | 0.1 to 1
20 | Fc1c(-c2ccc(F)c3sc(C(F)F)nc23)c(C(F)(F)F)cc2c(N3CC4CCC(C3)N4)nc(OC[C@@]34CCCN3C[C@H](F)C4)nc12 [Compound 339] | > 1 | 10 to 30 | 10 to 30
21 | CN1CCC(Oc2nc(N3CC4CCC(C3)N4)c3cc(C(F)(F)F)c(-c4ccc(F)c5sc(N)nc45)c(F)c3n2)CC1 [Compound 340] | 0.1 to 1 | 1 to 10 | 1 to 10
22 | N#Cc1c(O)cccc1-c1c(C(F)(F)F)cc2c(N3CC4CCC(C3)N4)nc(OCC34CCCN3CCC4)nc2c1F [Compound 341] | > 1 | 10 to 30 | 10 to 30
23 | N#Cc1c(N)cccc1-c1c(C(F)(F)F)cc2c(N3CC4CCC(C3)N4)nc(OCC34CCCN3CCC4)nc2c1F [Compound 342] | > 1 | 10 to 30 | 10 to 30
24 | Nc1nc2c(-c3c(C(F)(F)F)cc4c(N5C[C@H]6CC[C@@H](C5)N6)nc(OC[C@@]56CCCN5C[C@H](F)C6)nc4c3O)ccc(F)c2s1 [Compound 343, 7-(2-amino-7-fluorobenzo[d]thiazol-4-yl)-4-((1R,5S)-3,8-diazabicyclo[3.2.1]octan-3-yl)-2-(((2R,7aS)-2-fluorotetrahydro-1H-pyrrolizin-7a(5H)-yl)methoxy)-6-(trifluoromethyl)quinazolin-8-ol] | > 1 | 10 to 30 | 10 to 30
25 | Nc1c(F)c(F)c(F)c(-c2c(C(F)(F)F)cc3c(N4CC5CCC(C4)N5)nc(OCC45CCCN4CCC5)nc3c2F)c1Cl [Compound 346] | > 1 | 10 to 30 | 10 to 30
26 | N#Cc1c(N)sc2c(F)ccc(-c3ccc4c(N5CC6CCC(C5)N6)nc(OC[C@@]56CCCN5C[C@H](F)C6)nc4c3F)c12 [Compound 358] | ≤ 0.1 | 0.1 to 1 | 1 to 10
27 | N#Cc1cc2c(N3C[C@H]4CC[C@@H](C3)N4)nc(OC[C@@]34CCCN3C[C@H](F)C4)nc2c(F)c1-c1ccc(F)c2sc(N)c(C#N)c12 [Compound 359, 7-(2-amino-3-cyano-7-fluorobenzo[b]thiophen-4-yl)-4-((1R,5S)-3,8-diazabicyclo[3.2.1]octan-3-yl)-8-fluoro-2-(((2R,7aS)-2-fluorotetrahydro-1H-pyrrolizin-7a(5H)-yl)methoxy)quinazoline-6-carbonitrile] | ≤ 0.1 | 0.1 to 1 | 0.1 to 1
28 | N#Cc1c(N)sc2c(F)ccc(-c3c(C(F)(F)F)cc4c(N5C[C@H]6CC[C@@H](C5)N6)nc(N5CC(N6CC7(CC7)C6)C5)nc4c3F)c12 [Compound 363, 4-(2-(3-(5-azaspiro[2.3]hexan-5-yl)azetidin-1-yl)-4-((1R,5S)-3,8-diazabicyclo[3.2.1]octan-3-yl)-8-fluoro-6-(trifluoromethyl)quinazolin-7-yl)-2-amino-7-fluorobenzo[b]thiophene-3-carbonitrile] | ≤ 0.1 | 0.1 to 1 | 0.1 to 1
